Results reported in paper PMC4262670 (Macromolecular bioscience, 2014).

Experiments:
[1] = cited from earlier work; for water solubility of free drugs: medium with 0.5 % (v/v) DMSO used to prevent precipitation, no reference given
[2] = ref [13]–[15]; cited from earlier work
[3] = system: A2780 and OVCAR-3 human ovarian cancer cell lines; test: Single agent in vitro cytotoxicity, WST-8, result stated over both cell lines; assay type: cell-based; settings: A2780 versus OVCAR-3, WST-8
[4] = ref [8]; cited from earlier work
[5] = system: non-small cell lung carcinoma (NSCLC); settings: ref [59]; cited from earlier work
[6] = system: first recurrence of ovarian cancer; settings: added to carboplatin and gemcitabine; ref [56]; cited from earlier work
[7] = clinical investigation; ref [31]; cited from earlier work

In the case of `C=CCNC1=C2C[C@@H](C)C[C@H](OC)[C@H](O)[C@@H](C)/C=C(\C)[C@H](OC(N)=O)[C@@H](OC)/C=C\C=C(/C)C(=O)NC(=CC1=O)C2=O` [17-AAG, 17-(allylamino)-17-demethoxygeldanamycin], the “water solubility, ref 32” value ([1]; ref [32]) is given as “poorly water soluble”.
In the case of `CC(=O)O[C@@]12CO[C@@H]1C[C@H](O)[C@@]1(C)C(=O)[C@H](O)C3=C(C)[C@@H](OC(=O)[C@H](O)[C@@H](NC(=O)OC(C)(C)C)c4ccccc4)C[C@@](O)([C@@H](OC(=O)c4ccccc4)[C@H]21)C3(C)C` [DOC, docetaxel], the “cross resistance with paclitaxel” value [2] is given as “does not demonstrate complete cross resistance with paclitaxel”, the “differences in susceptibility of cell lines” value [3] is given as “did not indicate overall trends in differences in the susceptibility” and the “in vitro cytotoxicity compared to paclitaxel” value [4] is given as “superior in vitro cytotoxicity”. For the same compound, the “water solubility of free drugs” value [1] was “poor water solubility”.
For `CO[C@H]1/C=C\C=C(/C)C(=O)NC2=CC(=O)C(NCCCCCCN)=C(C[C@@H](C)C[C@H](OC)[C@H](O)[C@@H](C)/C=C(\C)[C@@H]1OC(N)=O)C2=O` [AHGDM, 17-(hexane-1,6-diamine)-17-demethoxygeldanamycin], the “differences in susceptibility of cell lines” value [3] is listed as “did not indicate overall trends in differences in the susceptibility” and the “water solubility of free drugs” value [1] is listed as “poor water solubility”.
In the case of `CC(=O)O[C@H]1C(=O)[C@@]2(C)[C@H]([C@H](OC(=O)c3ccccc3)[C@]3(O)C[C@H](OC(=O)[C@H](O)[C@@H](NC(=O)c4ccccc4)c4ccccc4)C(C)=C1C3(C)C)[C@]1(OC(C)=O)CO[C@@H]1C[C@@H]2O` [paclitaxel], the mean survival time [5] is given as 6.5 weeks.
In the case of “bevacizumab: anti-angiogenic monoclonal antibody against VEGF-A, added to carboplatin and gemcitabine”, the “disease progression and overall survival” value [6] is listed as “greater reduction in risk of disease progression and an improvement in overall survival”.
For `COC1=C2C[C@@H](C)C[C@H](OC)[C@H](O)[C@@H](C)/C=C(\C)[C@H](OC(N)=O)[C@@H](OC)/C=C\C=C(/C)C(=O)NC(=CC1=O)C2=O` [geldanamycin], the “hepatotoxicity” value [7] is listed as “significant hepatotoxicity”.
